This is an account of results in publication PMC8037418, “Outlining In Vitro and In Silico Cholinesterase Inhibitory Activity of Twenty-Four Natural Products of Various Chemical Classes: Smilagenin, Kokusaginine, and Methyl Rosmarinate as Emboldening Inhibitors” (Molecules, 2021).

Assay [1] addresses T1, BChE (Homo sapiens, UniProt P06276). Nature of the assay: Microtiter (Ellman) assay for BChE inhibition. Format: biochemical. The conditions noted are these: for inhibition at 100 µg/mL: read-out: ChE Inhibition (Inhibition % ± S.D. at 100 µg/mL) BChE. Here is the method:
(§1) Inhibition of AChE and BChE was determined by Ellman’s method with slight modifications. To the reaction mixture, 140 µL of […] sodium phosphate buffer (pH 8), 20 µL of DTNB, 20 µL of enzyme (either AChE or BChE) and 20 µL of the samples to be tested was added later incubated for 15 min at 25 °C. About 10 µL of […] or butyrylthiocholine chloride which act as substrates to react with DTNB forming 5-thio-2-nitrobenzoate anion, that formed a yellow-colored complex, was added into the incubated sample. The absorbance is measured at 417 nm using a 96-well ELISA microplate reader (VersaMax, Molecular Devices, San Jose, CA, USA) Galanthamine was used the reference drug.
(§2) The measurements and calculations were evaluated by using Softmax PRO 4.3.2.LS software. Percentage of inhibition of AChE/BChE/TYR was determined by comparison of rates of reaction of test samples relative to blank samples. Extent of the enzymatic reaction was calculated based on the following equation: I% = (C-T)/C × 100, where I% is the activity of the enzyme as percent inhibition. E value expresses the effect of the test sample or the positive control on AChE/BChE/TYR enzyme activity articulated as the percentage of the remaining activity in the presence of test sample or positive control. C value is the absorbance of the control solvent (blank) in the presence of enzyme, where T is the absorbance of the tested sample (plant extract or positive control in the solvent) in the presence of enzyme.
(In general: In Ellman's method for cholinesterases, released thiocholine reacts with DTNB.)

For assay [2], the target named is T2, AChE (Homo sapiens, UniProt P22303). Nature of the assay: biochemical. The conditions noted are these: for inhibition at 100 µg/mL: read-out: ChE Inhibition (Inhibition % ± S.D. at 100 µg/mL) AChE. Here is the method:
as §1, §2

Assay [3] concerns the target T1, BChE. The conditions noted are these: cited from earlier work.
Assay [4] has as its target T2, AChE. The conditions noted are these: cited from earlier work.
For assay [5], the system named is AChE of electric eel origin. The conditions noted are these: cited from earlier work.
Setting [6] is: at 100 µg/mL, n: 3, '-' = No inhibition.
The mark [7] stands for this setting: at 100 μg/mL, from Verbascum xanthophoeniceum and V. mucronatum.

What is called IC50 is the midpoint of a concentration-inhibition curve.

Values after ≈ are worked out from the molar mass of the structure shown. Like-named read-outs stand apart in the source and are kept apart here. Bounds are passed on as bounds.

T2 sequence (P22303 32-614): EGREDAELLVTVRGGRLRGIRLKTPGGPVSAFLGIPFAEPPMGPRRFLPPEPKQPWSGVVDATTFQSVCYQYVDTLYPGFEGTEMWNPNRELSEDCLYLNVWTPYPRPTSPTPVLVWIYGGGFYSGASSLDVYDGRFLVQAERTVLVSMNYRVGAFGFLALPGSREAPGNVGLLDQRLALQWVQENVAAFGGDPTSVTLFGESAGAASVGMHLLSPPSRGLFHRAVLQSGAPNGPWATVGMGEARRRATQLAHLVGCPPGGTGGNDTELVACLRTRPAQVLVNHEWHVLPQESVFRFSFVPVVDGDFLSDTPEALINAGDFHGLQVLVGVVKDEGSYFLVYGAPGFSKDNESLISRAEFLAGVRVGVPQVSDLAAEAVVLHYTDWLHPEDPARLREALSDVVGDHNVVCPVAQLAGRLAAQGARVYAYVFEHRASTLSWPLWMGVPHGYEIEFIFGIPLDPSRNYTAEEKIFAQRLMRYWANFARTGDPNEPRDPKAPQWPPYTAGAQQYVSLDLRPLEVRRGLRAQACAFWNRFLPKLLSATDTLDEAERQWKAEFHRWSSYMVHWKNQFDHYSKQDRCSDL
T1 sequence (P06276 29-602): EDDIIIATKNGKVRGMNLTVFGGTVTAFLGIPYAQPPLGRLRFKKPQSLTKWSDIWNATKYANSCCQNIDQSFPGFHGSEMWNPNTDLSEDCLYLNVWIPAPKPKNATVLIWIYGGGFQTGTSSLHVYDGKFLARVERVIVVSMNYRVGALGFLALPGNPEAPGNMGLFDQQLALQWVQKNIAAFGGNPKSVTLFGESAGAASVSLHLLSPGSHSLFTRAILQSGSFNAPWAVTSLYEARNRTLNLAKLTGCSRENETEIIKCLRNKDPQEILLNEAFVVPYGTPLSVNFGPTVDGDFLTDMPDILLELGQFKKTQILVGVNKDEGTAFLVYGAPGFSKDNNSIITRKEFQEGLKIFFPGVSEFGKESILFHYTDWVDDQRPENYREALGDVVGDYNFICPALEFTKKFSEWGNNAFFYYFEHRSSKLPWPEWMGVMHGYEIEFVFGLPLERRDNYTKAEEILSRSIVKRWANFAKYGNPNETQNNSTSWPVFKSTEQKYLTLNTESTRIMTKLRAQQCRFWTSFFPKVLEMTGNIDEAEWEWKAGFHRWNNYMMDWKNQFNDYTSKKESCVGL

As to `COC(=O)C1=COC(OC2OC(CO)C(O)C(O)C2O)C2C1(O)CC(O)C2(C)O` (stereo not drawn) [Lamiide], the inhibition at 100 µg/mL on BChE [1] (setting [6]) is 8.77 ± 0.92%; on AChE [2] (setting [6]), less than 0%.
In turn, `COC(=O)[C@@H](Cc1ccc(O)c(O)c1)OC(=O)/C=C/c1ccc(O)c(O)c1` [Methyl rosmarinate] gave a concentration for half-maximal inhibition (IC50) against BChE [1] of 111 µM. Besides, the inhibition at 100 µg/mL was found to be 82.74 ± 0.62% at BChE [1] (setting [6]) and 16.8 ± 3.84% on AChE [2] (setting [6]).
As for `CC(CCC(O)C(C)(C)OC1OCC(O)C(O)C1O)C1CCC2(C)C3C(O)CC4C(C)(C)C(OC5OC(C)C(O)C(O)C5O)CC(O)C45CC35CCC12C` (stereo not drawn) [Macrophyllosaponin C], the inhibition at 100 µg/mL at BChE [1] came out at 16.5 ± 1.57%; at AChE [2] (setting [6]), 12.4 ± 1.4%.
On to `C[C@@H]1CC[C@@]2(OC1)O[C@H]1C[C@H]3[C@@H]4CC[C@@H]5C[C@@H](O)CC[C@]5(C)[C@H]4CC[C@]3(C)[C@H]1[C@@H]2C` [Smilagenin], for which the inhibition at 100 µg/mL at BChE [1] was determined as 15 ± 3.01%; on AChE [2] (setting [6]), 62.4 ± 2.44%. Further, the concentration for half-maximal inhibition (IC50) at BChE [3] (compound isolated from Asparagus racemosus) is 5.4 µM; on AChE [2], 104 µM; on AChE [4] (read-out: IC50 AChE, compound isolated from Asparagus racemosus) it was 9.9 µM.
`CC(C)(O)[C@@H]1CC[C@](C)([C@H]2[C@@H](O)C[C@@]3(C)[C@@H]4C[C@H](O[C@@H]5O[C@H](CO)[C@@H](O)[C@H](O)[C@H]5O)[C@H]5C(C)(C)[C@@H](O[C@@H]6OC[C@@H](O)[C@H](O)[C@H]6O[C@@H]6O[C@H](CO)[C@@H](O)[C@H](O)[C@H]6O)CC[C@@]56C[C@@]46CC[C@]23C)O1` [Astragaloside VI]: the figures for the inhibition at 100 µg/mL at BChE [1] and at AChE [2] (setting [6]) were 7.72 ± 0.53% and 6.23 ± 2.82%, respectively.
As to `CC1CCC2(OC1)OC1CC3C4CCC5CC(O)CCC5(C)C4CC(O)C3(C)C1C2C` (stereo not drawn) [Rockogenin], the inhibition at 100 µg/mL came to 15.2 ± 2.56% at BChE [1] and 5.29 ± 0.52% on AChE [2].
On to `CC(CCC(O)C(C)(C)O)C1C(O)CC2(C)C3CC(OC4OC(CO)C(O)C(O)C4O)C4C(C)(C)C(OC5OCC(O)C(O)C5O)CCC45CC35CCC12C` (stereo not drawn) [Cyclocanthoside E], for which the inhibition at 100 µg/mL at BChE [1] is 5.35 ± 1.82%; on AChE [2] (setting [6]) it was 2.18 ± 1.81%.
`CC(=O)OC1C(O)COC(OC2CCC34CC35CCC3(C)C(C6(C)CCC(C(C)(C)O)O6)C(O)CC3(C)C5CC(OC3OCC(O)C(O)C3O)C4C2(C)C)C1OC(C)=O` (stereo not drawn) [Astrasieversianin II]: the inhibition at 100 µg/mL at BChE [1] was found to be 13.6 ± 1.79%; on AChE [2] (setting [6]), 8.01 ± 0.48%.
Take `C[C@@H]1CC[C@@]2(OC1)O[C@H]1C[C@H]3[C@@H]4CC[C@H]5C[C@@H](O)CC[C@]5(C)[C@H]4CC[C@]3(C)[C@H]1[C@@H]2C` [Tigogenin]: at BChE [1], the inhibition at 100 µg/mL was 22.2 ± 3.09%. For the same molecule, on AChE [2] (setting [6]), the “ChE Inhibition (Inhibition % ± S.D. at 100 µg/mL) AChE” value is recorded as 17.09 ± 0.69% and the inhibition at 100 µg/mL came to 17%.
Consider `CC(CCC(O)C(C)(C)O)C1C(O)CC2(C)C3CC(OC4OC(CO)C(O)C(O)C4O)C4C(C)(C)C(OC5OCC(O)C(O)C5OC5OC(CO)C(O)C(O)C5O)CCC45CC35CCC12C` (stereo not drawn) [Cyclocanthoside G], for which the results for the inhibition at 100 µg/mL on BChE [1] and at AChE [2] (setting [6]) were 8.23 ± 0.24% and 6.85 ± 0.72%, respectively.
`C[C@@H]1CC[C@@]2(OC1)O[C@H]1C[C@H]3[C@@H]4CC[C@H]5C[C@@H](O)CC[C@]5(C)[C@H]4CC(=O)[C@]3(C)[C@H]1[C@@H]2C` [Hecogenin]: the inhibition at 100 µg/mL at BChE [1] stood at 17.3 ± 1.84%. At AChE [2] (setting [6]), the “ChE Inhibition (Inhibition % ± S.D. at 100 µg/mL) AChE” value came out at 25.36 ± 1.11% and the inhibition at 100 µg/mL amounted to 25%.
Consider Forsythoside B, for which the “ChE Inhibition (Inhibition % ± S.D. at 100 µg/mL) BChE” value at BChE [1] (setting [6]) is 14.80 ± 2.31%. For the same molecule, the AChE inhibition entry at AChE [4] (Calceolaria talcana study) is given as “no AChE inhibition”.
Regarding `C[C@@H]1CC[C@@]2(OC1)O[C@H]1C[C@H]3[C@@H]4CC=C5C[C@@H](O)CC[C@]5(C)[C@H]4CC[C@]3(C)[C@H]1[C@@H]2C` [Diosgenin], in assay [5], the “IC50 AChE” value is 103.60 µg/mL (≈ 250 µM). Further, the values for the inhibition at 100 µg/mL on BChE [1] and on AChE [2] (setting [6]) were 8.12 ± 2.64% and 4.31 ± 0.37%, respectively.
For `COc1ccc2c3c1O[C@H]1C[C@@H](O)C=C[C@@]31CCN(C)C2` [Galanthamine HBr, reference compound], the inhibition at 100 µg/mL at BChE [1] was found to be 60.3 ± 1.36%.
Take `O=C(O)C1OC(Oc2cc(O)c3c(=O)cc(-c4ccc(O)c(O)c4)oc3c2)C(O)C(O)C1O` (stereo not drawn) [Luteolin-7-O-glucuronide]: the inhibition at 100 µg/mL on BChE [1] and on AChE [2] (setting [6]) was less than 0% in each case.
Take `CC(C)(O)[C@@H]1CC[C@](C)([C@H]2[C@@H](O)C[C@@]3(C)[C@@H]4C[C@H](O[C@@H]5O[C@H](CO)[C@@H](O)[C@H](O)[C@H]5O)[C@H]5C(C)(C)[C@@H](O[C@@H]6OC[C@@H](O)[C@H](O)[C@H]6O)CC[C@@]56C[C@@]46CC[C@]23C)O1` [Astragaloside IV]: the inhibition at 100 µg/mL at BChE [1] was 6.62 ± 2.72%; on AChE [2] (setting [6]) it was 4.8 ± 0.05%.
Regarding `COC(=O)C1=COC(OC2OC(CO)C(O)C(O)C2O)C2C(C)(O)CCC12O` (stereo not drawn) [Ipolamide], the inhibition at 100 µg/mL is 12.4 ± 2.28% on BChE [1] (setting [6]) and less than 0% at AChE [2] (setting [6]).
With tannic acid [reference compound], the “IC50 AChE” value in assay [5] was 0.10 µg/mL.
Consider `CC(CCC(OC1OCC(O)C(O)C1O)C(C)(C)O)C1CCC2(C)C3C(O)CC4C(C)(C)C(OC5OC(C)C(O)C(O)C5O)CC(O)C45CC35CCC12C` (stereo not drawn) [Macrophyllosaponin B], for which the inhibition at 100 µg/mL stood at 12.2 ± 1.16% on BChE [1] and 13.2 ± 0.92% on AChE [2] (setting [6]).
The corresponding values for `CC(C)(O)C1CCC(C)(C2C(O)CC3(C)C4CC(OC5OCC(O)C(O)C5O)C5C(C)(C)C(OC6OCC(O)C(O)C6O)CCC56CC46CCC23C)O1` (stereo not drawn) [Astrasieversianin X] are 10.1 ± 2.34% and 8.6 ± 0.91%.
As to `CC(CCC(OC1OCC(O)C(O)C1OC1OCC(O)C(O)C1O)C(C)(C)O)C1CCC2(C)C3C(O)CC4C(C)(C)C(OC5OC(C)C(O)C(O)C5O)CC(O)C45CC35CCC12C` (stereo not drawn) [Macrophyllosaponin D], the results for the inhibition at 100 µg/mL at BChE [1] and on AChE [2] (setting [6]) were 10.1 ± 0.78% and 4.31 ± 1.32%, respectively.
As for `COc1cc2nc3occc3c(OC)c2cc1OC` [Kokusaginine], the IC50 against BChE [1] is 237 µM; against AChE [2] it was 271 µM. In addition, the values for the inhibition at 100 µg/mL on BChE [1] (setting [6]) and on AChE [2] (setting [6]) were 67.4 ± 3.1% and 62.4 ± 3.2%, respectively.
As to `CC(=O)OC1C(OC(CCC(C)C2CCC3(C)C4C(O)CC5C(C)(C)C(OC6OC(C)C(O)C(O)C6O)CC(O)C56CC46CCC23C)C(C)(C)O)OCC(O)C1O` (stereo not drawn) [Macrophyllosaponin A], the inhibition at 100 µg/mL at BChE [1] came out at 12.2 ± 1.83%; at AChE [2] (setting [6]), 9.69 ± 0.85%.
As for `CC(=O)OC1C(O)COC(OC2CCC34CC35CCC3(C)C(C6(C)CCC(C(C)(C)O)O6)C(O)CC3(C)C5CC(OC3OC(CO)C(O)C(O)C3O)C4C2(C)C)C1OC(C)=O` (stereo not drawn) [Astragaloside I], the inhibition at 100 µg/mL was 8.38 ± 1.28% on BChE [1] and less than 0% at AChE [2] (setting [6]).
In the case of `COc1cc(C=CC(=O)OC2C(COC3OCC(O)(CO)C3O)OC(OCCc3ccc(O)c(O)c3)C(O)C2OC2OC(C)C(O)C(O)C2O)ccc1O` (stereo not drawn) [Alyssonoside], the inhibition at 100 µg/mL at BChE [1] (setting [6]) was 13 ± 2.07%; on AChE [2] (setting [6]), less than 0%.
`C[C@@H]1O[C@@H](O[C@@H]2[C@@H](O)[C@H](OCCc3ccc(O)c(O)c3)O[C@H](CO)[C@H]2OC(=O)/C=C/c2ccc(O)c(O)c2)[C@H](O)[C@H](O)[C@H]1O` [Verbascoside]: the inhibition at 100 µg/mL on BChE [1] amounted to 22.2 ± 2.54%; at AChE [2] (setting [6]), 8.12 ± 1.49%. The IC50 at BChE [3] (Calceolaria talcana study) was 170 µM; at AChE [4] (Calceolaria talcana study, read-out: IC50 AChE (converted)), 304 µM. Besides, at BChE [3] (setting [7]), the “ChE inhibition (BChE)” value was “below 30%”. Moreover, the “inhibition against BChE” value at BChE [3] (isolated from Olea europea L.) is “no inhibition”. Also, the AChE inhibition on AChE [4] (at 100 μg/mL, from Pseuderanthemum carruthersii) is on record as less than 50%. Also, the “ChE inhibition (AChE)” value at AChE [4] (setting [7]) is “below 30%”. Further, the “inhibition against AChE” value on AChE [4] (isolated from Olea europea L.) is on record as “no inhibition”.
